According to patent US20040005537A1, “Method of identifying toxic agents using differential gene expression” (priority 2000, published 2004):

Legend:
rat heart tissue = assay: GENECALLING differential gene expression analysis after dosing of serotonin modulating agents; assay type: in vivo, Sprague Dawley rats
Outline: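 Rats dosed with serotonin modulating agents, controls given sterile water or canola oil; tissue taken 24 h after the last dose. Total RNA converted to cDNA and profiled by GENECALLING differential expression analysis; fragments changed more than ±1.5-fold were selected.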

[1] = grouping used to generate the distinguishing gene profiles; cited from earlier work

Structure (SMILES): CN1C[C@H](C(=O)N[C@]2(C)O[C@@]3(O)[C@@H]4CCCN4C(=O)[C@H](Cc4ccccc4)N3C2=O)C[C@@H]2c3cccc4[nH]cc(c34)C[C@H]21 [dihydroergotamine]
- Effects on Transcription Level: Novel gene fragment, 535 bp, 90% SI to mouse slow/cardiac troponin C [M29793] (rat heart tissue; CARDIOTOX 71): −1.7 fold
- Effects on Transcription Level: Novel gene fragment, 445 bp, 85% SI to human skeletal muscle alpha 2 actinin [M86406] (rat heart tissue; CARDIOTOX 72): −2.0 fold
- Effects on Transcription Level: Novel gene fragment, 246 bp, 89% SI to mouse ponsin-1 [AF078667] (rat heart tissue; CARDIOTOX 73): −3.5 fold
- Effects on Transcription Level: Novel gene fragment, 126 bp, 77% SI to human DNA sequence from cosmid V311G7, between markers DXS366 and DXS87 on chromosome X [Z69304] (rat heart tissue; CARDIOTOX 74): +1.8 fold
- Effects on Transcription Level: Novel gene fragment, 370 bp (rat heart tissue; CARDIOTOX 75): −2.0 fold
- Effects on Transcription Level: Novel gene fragment, 337 bp, 78% SI to novel human protein AHNAK [M80899] (rat heart tissue; CARDIOTOX 76): −4.1 fold
- Effects on Transcription Level: Novel gene fragment, 100 bp, 93% SI to human KIAA0750 protein [ABO18293] (rat heart tissue; CARDIOTOX 77): −9.3 fold
- Effects on Transcription Level: Novel gene fragment, 44 bp (rat heart tissue; CARDIOTOX 78): −9.0 fold
- Effects on Transcription Level: Novel gene fragment, 698 bp, 93% SI to mouse plenty-of-prolines-101 [AF062655] (rat heart tissue; CARDIOTOX 79): −1.9 fold
- Effects on Transcription Level: Novel gene fragment, 660 bp, 84% SI to mouse membrane protein TMS-2 [AF181685] (rat heart tissue; CARDIOTOX 80): −3.0 fold
- Effects on Transcription Level: Novel gene fragment, 115 bp (rat heart tissue; CARDIOTOX 81): −7.5 fold
- Effects on Transcription Level: Novel gene fragment, 294 bp, 95% SI to mouse Ndr1 related protein Ndr2 [AB033921] (rat heart tissue; CARDIOTOX 82): −3.3 fold
- Effects on Transcription Level: Novel gene fragment, 198 bp (rat heart tissue; CARDIOTOX 83): +2.6 fold
- Effects on Transcription Level: Novel gene fragment, 730 bp, 86% SI to mouse E800 [Y10968] (rat heart tissue; CARDIOTOX 84): −1.7 fold
- Effects on Transcription Level: Novel gene fragment, 294 bp, 98% SI to cysteine conjugate beta-lyase [S61960] (rat heart tissue; CARDIOTOX 85): −1.7 fold
- Effects on Transcription Level: Aconitase (rat heart tissue; CARDIOTOX 86, GenBank A1243266): −3.2 fold
- Effects on Transcription Level: Ribosomal protein L7 (rat heart tissue; CARDIOTOX 87, GenBank M17422): +2.7 fold
- Effects on Transcription Level: Ribosomal protein L9 (rat heart tissue; CARDIOTOX 88, GenBank X51706): +5.0 fold
- Effects on Transcription Level: Ribosomal protein L12 (rat heart tissue; CARDIOTOX 89, GenBank X53504): −2.0 fold
- Effects on Transcription Level: 18S, 5.8S, and 28S ribosomal RNA's (rat heart tissue; CARDIOTOX 90, GenBank V01270): +2.6 fold
- Effects on Transcription Level: Pyruvate dehydrogenase kinase 2 (PDK2) (rat heart tissue; CARDIOTOX 91, GenBank U10357): −5.8 fold
- Effects on Transcription Level: D-Binding Protein (DBP) (rat heart tissue; CARDIOTOX 92, GenBank J03179): −1.5 fold
- Effects on Transcription Level: Lipoprotein lipase (rat heart tissue; CARDIOTOX 93, GenBank L03294): −2.2 fold
- Effects on Transcription Level: Non-neuronal enolase (rat heart tissue; CARDIOTOX 94, GenBank X02610): +3.1 fold
- Effects on Transcription Level: Glycogen phosphorylase (muscle isozyme) (rat heart tissue; CARDIOTOX 95, GenBank L10669): −2.7 fold
- Effects on Transcription Level: Cytochrome c oxidase subunit IV (rat heart tissue; CARDIOTOX 96, GenBank X14209): +4.1 fold
- Effects on Transcription Level: Alpha-globin (rat heart tissue; CARDIOTOX 97, GenBank M17083): +3.9 fold
- Effects on Transcription Level: Beta-globin (rat heart tissue; CARDIOTOX 98, GenBank X06701): +3.3 fold
- Effects on Transcription Level: Myoglobin (rat heart tissue; CARDIOTOX 99, GenBank AF197916): +3.9 fold
- Effects on Transcription Level: Titin (rat heart tissue; CARDIOTOX 100, GenBank L38717): −5.4 fold
- Effects on Transcription Level: Skeletal muscle actin (rat heart tissue; CARDIOTOX 101, GenBank V01218): −14.3 fold
- Effects on Transcription Level: Myosin light chain 2 (MLC2) (rat heart tissue; CARDIOTOX 102, GenBank M11851): −1.5 fold
- Effects on Transcription Level: Alpha cardiac myosin heavy chain (rat heart tissue; CARDIOTOX 103, GenBank X15938): −2.5 fold
- Effects on Transcription Level: Troponin I (rat heart tissue; CARDIOTOX 104, GenBank U77354): +1.5 fold
- Effects on Transcription Level: Cardiac calsequestrin (rat heart tissue; CARDIOTOX 105, GenBank AF001334): −2.1 fold
- Effects on Transcription Level: Sulfated glycoprotein 2 (rat heart tissue; CARDIOTOX 106, GenBank M16975): −1.6 fold
- Effects on Transcription Level: Aquaporin 7 (rat heart tissue; CARDIOTOX 107, GenBank AB000507): +1.7 fold
- Effects on Transcription Level: Carnitine/acylcarnitine carrier protein (rat heart tissue; CARDIOTOX 108, GenBank X97831): −2.8 fold
- Effects on Transcription Level: Glu-Pro Dipeptide Repeat (rat heart tissue; CARDIOTOX 109, GenBank U40628): −5.1 fold
- Effects on Transcription Level: Cystatin beta (rat heart tissue; CARDIOTOX 110, GenBank X54737): +2.6 fold
- Effects on Transcription Level: Novel gene fragment, 593 bp, 90% SI to human calcineurin B-like protein [Z08983] (rat heart tissue; CARDIOTOX 111): +1.7 fold
- Effects on Transcription Level: Novel gene fragment, 179 bp, 88% SI to human titin [X90568] (rat heart tissue; CARDIOTOX 112): +6.0 fold
- Effects on Transcription Level: Novel gene fragment, 700 bp, 91% SI to mouse periplakin (PPL) [AF116523] (rat heart tissue; CARDIOTOX 113): +1.7 fold
- Effects on Transcription Level: Long chain acyl-CoA dehydrogenase (LCAD) (rat heart tissue; CARDIOTOX 114, GenBank J05029): +1.5 fold
- Effects on Transcription Level: Sulfated glycoprotein 1 (SGP-1) (rat heart tissue; CARDIOTOX 115, GenBank M19936): −1.7 fold
- Effects on Transcription Level: Catalase (rat heart tissue; CARDIOTOX 116, GenBank M11670): +1.6 fold
- Effects on Transcription Level: Alpha-fodrin (A2A) (Nonerythroid spectrin alpha subunit) (rat heart tissue; CARDIOTOX 117, GenBank AF084186): −1.5 fold
- Effects on Transcription Level: Cardiac specific sodium channel alpha-subunit (rat heart tissue; CARDIOTOX 118, GenBank M27902): −1.6 fold
- Effects on Transcription Level: Glu-Pro Dipeptide Repeat (rat heart tissue; CARDIOTOX 119, GenBank U40628): +1.9 fold
- Effects on Transcription Level: Novel gene fragment, 200 bp, 64% SI to human KIAA0733 protein [AB018316] (rat heart tissue; CARDIOTOX 120): −1.2 fold
- Effects on Transcription Level: RNA polymerase II transcription factor SIII (p18 subunit) (rat heart tissue; CARDIOTOX 121, GenBank L42855): +1.4 fold
- Effects on Transcription Level: Protein-tyrosine phosphalase (LRP) (rat heart tissue; CARDIOTOX 122, GenBank L01702): +1.4 fold
- Effects on Transcription Level: Skeletal muscle selenoprotein W (SelW) (rat heart tissue; CARDIOTOX 123, GenBank U25264): −1.4 fold
- Effects on Transcription Level: Sarcoplasmic reticulum 2+-Ca-ATPase (rat heart tissue; CARDIOTOX 124, GenBank X15635): −1.2 fold
- Effects on Transcription Level: Ribosomal protein S7 (rat heart tissue; CARDIOTOX 125, GenBank X53377): +1.7 fold
- Effects on Transcription Level: Ribophorin I (rat heart tissue; CARDIOTOX 126, GenBank X05300): +1.5 fold
- Effects on Transcription Level: Beta cardiac myosin heavy chain (rat heart tissue; CARDIOTOX 127, GenBank X15939): −1.6 fold
- Effects on Transcription Level: ADP-ribosylation factor 1 (rat heart tissue; CARDIOTOX 128, GenBank L12380): +1.3 fold
- Effects on Transcription Level: Laminin receptor (rat heart tissue; CARDIOTOX 129, GenBank U04942): +1.1 fold
- Effects on Transcription Level: Novel gene fragment, 206 bp, 89% SI to human seryl-tRNA synthetase [X91257] (rat heart tissue; CARDIOTOX 130): +2.0 fold
- Effects on Transcription Level: Annexin VI (rat heart tissue; CARDIOTOX 131, GenBank X86086): +3.5 fold
- Effects on Transcription Level: Novel gene fragment, 325 bp, 90% SI to mouse N-RAP [U76618] (rat heart tissue; CARDIOTOX 132): +1.4 fold
- Effects on Transcription Level: Novel gene fragment, 61 bp (CARDIOTOX 134) (rat heart tissue; LD10 dose for three days): −1.1 fold
- Effects on Transcription Level: Novel gene fragment, 337 bp (CARDIOTOX 133) (rat heart tissue; LD10 dose for three days): −1.2 fold
- Effects on Transcription Level: Novel gene fragment, 378 bp, 88% SI to human coatomer protein (COPA) [U24105] (CARDIOTOX 138) (rat heart tissue; LD10 dose for three days): +1.2 fold
- Effects on Transcription Level: Long chain 3-ketoacyl-CoA thiolase (CARDIOTOX 136) (rat heart tissue; LD10 dose for three days, GenBank D16479): −1.2 fold
- Effects on Transcription Level: TATA-binding protein interacting protein 120 (TIP120) (CARDIOTOX 135) (rat heart tissue; LD10 dose for three days, GenBank D87671): +1.1 fold
- Effects on Transcription Level: Serine protease (CARDIOTOX 139) (rat heart tissue; LD10 dose for three days, GenBank D88250): +1.2 fold
- Effects on Transcription Level: Thymosin beta-4 (CARDIOTOX 137) (rat heart tissue; LD10 dose for three days, GenBank M34043): +1.6 fold
- classification as cardiotoxic or noncardiotoxic serotonin modulating agent [1]: cardiotoxic
